Measurements: the supplement of paper PMC10307832

Assays:
Test in all cases: relative viability (nuclei count vs DMSO), 5 days (fraction); higher = more cells survive
[1] = compound: C[C@]1(O)C[C@@H](c2nc(-c3ccc4ccc(-c5ccccc5)nc4c3)c3c(N)nccn32)C1 [Linsitinib] + COc1cccc2cc(-c3nc([C@H]4CC[C@H](C(=O)O)CC4)n4ncnc(N)c34)[nH]c12 [OSI-027] (partner 0.5 µM)
Method in brief: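 Relative viability divides the nuclei count in treated wells by that in vehicle wells. Lung cancer cell lines were seeded in 1536-well plates, dosed by pin tool the next day, and fixed and stained after 5 days in one step with final 0.05% Triton X-100, 1% formaldehyde and 1 ug/ml Hoechst. Dosing was a single drug or a fixed anchor-drug dose plus five library-drug doses (not always all listed) in √10 steps, and values are medians of duplicate plates imaged at 4×.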

[2] = compound: Cc1ccc(C(=O)N(CCCN)[C@@H](c2nc3cc(Cl)ccc3c(=O)n2Cc2ccccc2)C(C)C)cc1 [Ispinesib]
Method in brief: (§1)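 Only plates meeting two conditions passed: control CV below 25% and at least one doubling. Lung cancer cell lines, kept overnight at 37 °C in 1536-well plates, were pinned with five library-drug doses (not always all listed) √10 apart on vehicle-anchored plates and grown 5 days without medium change. A one-step fix, permeabilisation and Hoechst stain preceded 4× imaging and MetaXpress nuclear counting. Viability equals treated-well nuclei divided by vehicle-well nuclei, as the median over plates.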

[3] = compound: C[C@]1(O)C[C@@H](c2nc(-c3ccc4ccc(-c5ccccc5)nc4c3)c3c(N)nccn32)C1 [Linsitinib]
Method in brief: as §1

Cell Line: NCI-H441
- relative viability ([1]; first compound 0.01 µM): 0.672
- relative viability ([1]; first compound 0.03162 µM): 0.616
- relative viability ([1]; first compound 0.1 µM): 0.546
- relative viability ([1]; first compound 0.3162 µM): 0.307
- relative viability ([1]; first compound 1 µM): 0.312
- relative viability ([2]; 0.001 µM): 1.06
- relative viability ([2]; 0.003162 µM): 1.1
- relative viability ([2]; 0.01 µM): 0.765
- relative viability ([2]; 0.03162 µM): 0.272
- relative viability ([2]; 0.1 µM): 0.297
- relative viability ([3]; 0.01 µM): 0.951
- relative viability ([3]; 0.03162 µM): 0.981
- relative viability ([3]; 0.1 µM): 0.986
- relative viability ([3]; 0.3162 µM): 0.497
- relative viability ([3]; 1 µM): 0.636
- relative viability ([3]; 1 µM, anchor plate): 0.519

Cell Line: NCI-H1648
- relative viability ([1]; first compound 0.01 µM): 0.26
- relative viability ([1]; first compound 0.03162 µM): 0.265
- relative viability ([1]; first compound 0.1 µM): 0.264
- relative viability ([1]; first compound 1 µM): 0.245
- relative viability ([2]; 0.001 µM): 1.02
- relative viability ([2]; 0.003162 µM): 1.13
- relative viability ([2]; 0.01 µM): 0.792
- relative viability ([2]; 0.03162 µM): 1.14
- relative viability ([2]; 0.1 µM): 0.387
- relative viability ([3]; 0.01 µM): 1.11
- relative viability ([3]; 0.03162 µM): 0.972
- relative viability ([3]; 0.1 µM): 0.868
- relative viability ([3]; 0.3162 µM): 0.345
- relative viability ([3]; 1 µM): 0.8

Cell Line: SK-MES-1
- relative viability ([1]; first compound 0.01 µM): 0.541
- relative viability ([1]; first compound 0.03162 µM): 0.417
- relative viability ([1]; first compound 0.1 µM): 0.603
- relative viability ([1]; first compound 0.3162 µM): 0.458
- relative viability ([1]; first compound 1 µM): 0.332
- relative viability ([2]; 0.001 µM): 1.06
- relative viability ([2]; 0.003162 µM): 1.11
- relative viability ([2]; 0.01 µM): 1.06
- relative viability ([2]; 0.03162 µM): 0.56
- relative viability ([2]; 0.1 µM): 0.252
- relative viability ([3]; 0.01 µM): 0.962
- relative viability ([3]; 0.03162 µM): 1.01
- relative viability ([3]; 0.1 µM): 1.01
- relative viability ([3]; 0.3162 µM): 0.811
- relative viability ([3]; 1 µM): 0.874
- relative viability ([3]; 1 µM, anchor plate): 1.05

Cell Line: SW 900
- relative viability ([1]; first compound 0.01 µM): 0.565
- relative viability ([1]; first compound 0.03162 µM): 0.593
- relative viability ([1]; first compound 0.1 µM): 0.481
- relative viability ([1]; first compound 0.3162 µM): 0.397
- relative viability ([1]; first compound 1 µM): 0.352
- relative viability ([2]; 0.001 µM): 0.858
- relative viability ([2]; 0.003162 µM): 0.995
- relative viability ([2]; 0.01 µM): 1.05
- relative viability ([2]; 0.03162 µM): 0.683
- relative viability ([2]; 0.1 µM): 0.283
- relative viability ([3]; 0.01 µM): 0.885
- relative viability ([3]; 0.03162 µM): 0.986
- relative viability ([3]; 0.1 µM): 0.862
- relative viability ([3]; 0.3162 µM): 0.538
- relative viability ([3]; 1 µM): 0.477

Cell Line: HCC-15
- relative viability ([1]; first compound 0.01 µM): 0.677
- relative viability ([1]; first compound 0.03162 µM): 0.677
- relative viability ([1]; first compound 0.1 µM): 0.616
- relative viability ([1]; first compound 1 µM): 0.246
- relative viability ([2]; 0.001 µM): 1.08
- relative viability ([2]; 0.003162 µM): 1.07
- relative viability ([2]; 0.01 µM): 1.09
- relative viability ([2]; 0.03162 µM): 0.473
- relative viability ([2]; 0.1 µM): 0.197
- relative viability ([3]; 0.01 µM): 1.07
- relative viability ([3]; 0.03162 µM): 0.887
- relative viability ([3]; 0.1 µM): 0.984
- relative viability ([3]; 0.3162 µM): 0.383
- relative viability ([3]; 1 µM): 0.675
- relative viability ([3]; 1 µM, anchor plate): 0.89

Cell Line: ABC-1
- relative viability ([1]; first compound 0.01 µM): 0.502
- relative viability ([1]; first compound 0.03162 µM): 0.447
- relative viability ([1]; first compound 0.1 µM): 0.504
- relative viability ([1]; first compound 0.3162 µM): 0.38
- relative viability ([1]; first compound 1 µM): 0.217
- relative viability ([2]; 0.001 µM): 1.01
- relative viability ([2]; 0.003162 µM): 1.01
- relative viability ([2]; 0.01 µM): 0.979
- relative viability ([2]; 0.03162 µM): 0.314
- relative viability ([2]; 0.1 µM): 0.367
- relative viability ([3]; 0.01 µM): 0.88
- relative viability ([3]; 0.03162 µM): 0.789
- relative viability ([3]; 0.1 µM): 0.993
- relative viability ([3]; 0.3162 µM): 0.617
- relative viability ([3]; 1 µM): 0.533
- relative viability ([3]; 1 µM, anchor plate): 0.859

Cell Line: EPLC-272H
- relative viability ([1]; first compound 0.01 µM): 0.262
- relative viability ([1]; first compound 0.03162 µM): 0.296
- relative viability ([1]; first compound 1 µM): 0.257
- relative viability ([2]; 0.001 µM): 0.868
- relative viability ([2]; 0.003162 µM): 1.04
- relative viability ([2]; 0.01 µM): 0.909
- relative viability ([2]; 0.03162 µM): 0.342
- relative viability ([2]; 0.1 µM): 0.151
- relative viability ([3]; 0.01 µM): 1.02
- relative viability ([3]; 0.03162 µM): 1.01
- relative viability ([3]; 0.1 µM): 0.799
- relative viability ([3]; 1 µM): 0.879
- relative viability ([3]; 1 µM, anchor plate): 1.19

Cell Line: NCI-H2009
- relative viability ([1]; first compound 0.01 µM): 0.746
- relative viability ([1]; first compound 0.03162 µM): 0.646
- relative viability ([1]; first compound 0.1 µM): 0.696
- relative viability ([1]; first compound 1 µM): 0.428
- relative viability ([2]; 0.001 µM): 1.03
- relative viability ([2]; 0.003162 µM): 1.02
- relative viability ([2]; 0.01 µM): 1.04
- relative viability ([2]; 0.03162 µM): 0.606
- relative viability ([2]; 0.1 µM): 0.481
- relative viability ([3]; 0.01 µM): 0.974
- relative viability ([3]; 0.03162 µM): 0.994
- relative viability ([3]; 0.1 µM): 1.06
- relative viability ([3]; 0.3162 µM): 0.669
- relative viability ([3]; 1 µM): 0.979
- relative viability ([3]; 1 µM, anchor plate): 1.18

Cell Line: NCI-H661
- relative viability ([1]; first compound 0.01 µM): 0.732
- relative viability ([1]; first compound 0.03162 µM): 0.651
- relative viability ([1]; first compound 0.1 µM): 0.652
- relative viability ([1]; first compound 0.3162 µM): 0.6
- relative viability ([1]; first compound 1 µM): 0.516
- relative viability ([2]; 0.001 µM): 0.968
- relative viability ([2]; 0.003162 µM): 0.983
- relative viability ([2]; 0.01 µM): 0.993
- relative viability ([2]; 0.03162 µM): 0.742
- relative viability ([2]; 0.1 µM): 0.289
- relative viability ([3]; 0.01 µM): 0.926
- relative viability ([3]; 0.03162 µM): 1.09
- relative viability ([3]; 0.1 µM): 1.01
- relative viability ([3]; 0.3162 µM): 0.853
- relative viability ([3]; 1 µM): 1.04
- relative viability ([3]; 1 µM, anchor plate): 0.63

Cell Line: NCI-H520
- relative viability ([1]; first compound 0.01 µM): 0.232
- relative viability ([1]; first compound 0.03162 µM): 0.188
- relative viability ([1]; first compound 0.1 µM): 0.25
- relative viability ([1]; first compound 1 µM): 0.332
- relative viability ([2]; 0.001 µM): 0.977
- relative viability ([2]; 0.003162 µM): 0.997
- relative viability ([2]; 0.01 µM): 0.903
- relative viability ([2]; 0.03162 µM): 0.341
- relative viability ([2]; 0.1 µM): 0.251
- relative viability ([3]; 0.01 µM): 0.97
- relative viability ([3]; 0.03162 µM): 0.948
- relative viability ([3]; 0.1 µM): 1.06
- relative viability ([3]; 1 µM): 1.02
- relative viability ([3]; 1 µM, anchor plate): 0.951
